This note sets out measurements from the Kinase Knowledgebase extract (Sharma et al. 2016).

For orientation: IC50 means the concentration at which inhibition is half-maximal.

The target in one experiment is PIK3CG (human) (UniProt P48736). As to the kind of experiment: Inhibition of PIK3CG Kinase Activity.
The target of another experiment is PIK3CA (human) (UniProt P42336). The experiment is described as follows: Enzyme Assay.
Chain of PIK3CA (human) (P42336 whole entry, looked up): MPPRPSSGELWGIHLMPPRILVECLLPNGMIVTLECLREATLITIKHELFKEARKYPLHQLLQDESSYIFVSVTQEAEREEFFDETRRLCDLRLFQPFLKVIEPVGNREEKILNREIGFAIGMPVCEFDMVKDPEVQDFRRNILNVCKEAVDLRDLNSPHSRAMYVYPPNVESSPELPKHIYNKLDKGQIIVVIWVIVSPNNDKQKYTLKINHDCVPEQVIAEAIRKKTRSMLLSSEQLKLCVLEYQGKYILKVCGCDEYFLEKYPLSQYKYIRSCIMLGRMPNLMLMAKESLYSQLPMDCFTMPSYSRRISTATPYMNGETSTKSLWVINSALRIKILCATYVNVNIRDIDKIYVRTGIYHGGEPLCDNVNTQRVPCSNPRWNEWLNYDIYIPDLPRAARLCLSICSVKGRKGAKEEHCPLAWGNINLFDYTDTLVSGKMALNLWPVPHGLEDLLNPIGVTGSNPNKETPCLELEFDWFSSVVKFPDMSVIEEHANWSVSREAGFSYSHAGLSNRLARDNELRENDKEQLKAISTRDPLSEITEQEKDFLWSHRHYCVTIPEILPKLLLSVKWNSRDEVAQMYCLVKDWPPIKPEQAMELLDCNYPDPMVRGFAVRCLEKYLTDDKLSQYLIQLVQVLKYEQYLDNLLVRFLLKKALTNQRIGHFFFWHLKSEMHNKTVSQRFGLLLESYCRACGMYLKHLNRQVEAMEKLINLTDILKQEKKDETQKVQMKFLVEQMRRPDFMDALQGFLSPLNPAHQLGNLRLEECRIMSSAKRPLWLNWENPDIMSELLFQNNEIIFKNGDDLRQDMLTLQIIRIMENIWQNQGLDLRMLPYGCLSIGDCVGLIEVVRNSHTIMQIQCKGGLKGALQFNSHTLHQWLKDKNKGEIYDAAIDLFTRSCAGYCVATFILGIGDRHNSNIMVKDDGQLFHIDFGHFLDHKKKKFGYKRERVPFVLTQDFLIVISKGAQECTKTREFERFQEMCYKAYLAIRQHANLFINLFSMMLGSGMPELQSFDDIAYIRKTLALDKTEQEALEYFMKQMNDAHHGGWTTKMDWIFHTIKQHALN

Chain of PIK3CG (human) (P48736 whole entry, looked up): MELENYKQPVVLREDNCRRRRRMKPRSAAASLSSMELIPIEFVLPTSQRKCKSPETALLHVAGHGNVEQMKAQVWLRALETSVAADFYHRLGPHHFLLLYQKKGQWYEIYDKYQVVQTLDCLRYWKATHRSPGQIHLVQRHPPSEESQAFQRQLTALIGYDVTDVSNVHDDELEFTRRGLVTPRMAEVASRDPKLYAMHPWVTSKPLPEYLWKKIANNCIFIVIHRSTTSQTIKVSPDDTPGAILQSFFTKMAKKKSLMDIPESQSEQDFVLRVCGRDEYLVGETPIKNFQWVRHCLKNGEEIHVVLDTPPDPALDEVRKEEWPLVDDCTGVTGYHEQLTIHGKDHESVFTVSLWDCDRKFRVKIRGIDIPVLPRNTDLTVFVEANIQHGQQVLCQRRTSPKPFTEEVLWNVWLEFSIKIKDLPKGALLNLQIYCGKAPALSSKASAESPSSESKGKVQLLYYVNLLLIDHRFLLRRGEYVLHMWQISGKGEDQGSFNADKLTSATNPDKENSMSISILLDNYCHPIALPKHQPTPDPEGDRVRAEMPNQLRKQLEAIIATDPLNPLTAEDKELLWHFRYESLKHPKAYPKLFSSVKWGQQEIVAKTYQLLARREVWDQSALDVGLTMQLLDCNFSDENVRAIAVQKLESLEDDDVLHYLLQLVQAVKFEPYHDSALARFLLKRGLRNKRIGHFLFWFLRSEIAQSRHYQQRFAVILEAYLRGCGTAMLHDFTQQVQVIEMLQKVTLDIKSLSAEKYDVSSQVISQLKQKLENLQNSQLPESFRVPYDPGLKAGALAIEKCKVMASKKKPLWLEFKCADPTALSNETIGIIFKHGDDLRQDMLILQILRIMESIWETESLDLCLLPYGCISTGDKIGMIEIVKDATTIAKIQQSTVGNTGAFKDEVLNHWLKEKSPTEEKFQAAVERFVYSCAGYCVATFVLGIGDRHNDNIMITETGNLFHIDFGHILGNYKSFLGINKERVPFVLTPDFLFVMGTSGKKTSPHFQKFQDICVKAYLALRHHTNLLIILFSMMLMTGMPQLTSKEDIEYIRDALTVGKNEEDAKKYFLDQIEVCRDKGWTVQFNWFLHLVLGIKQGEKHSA

Take `COc1ccc2c(c1)c(/C=C1\Oc3c(ccc(O)c3C)C1=O)c(C)n2CCCN(C)C`: at PIK3CG (human), the IC50 is 5 µM. This lies in the single-digit micromolar range.
Turning to `COc1ccc2c(c1)c(C=C1Oc3cccc(O)c3C1=O)c(C)n2CCN1CCN(CCO)CC1`, the IC50 was found to be 0.478 µM against PIK3CA (human) and 3.97 µM on PIK3CG (human).
Taken in the same sequence, the figures for `COc1ccc2c(c1)c(C=C1Oc3c(ccc(O)c3O)C1=O)c(C)n2CCCCN1CCN(CCO)CC1` were 0.204 µM and 3.17 µM.
Taken in the same sequence, the figures for `Cn1cc(/C=C2\Oc3cc(O)cc(O)c3C2=O)c2c(Br)cccc21` were 3.31 µM and 1.94 µM.
At PIK3CG (human), `O=C1C(=Cc2c(-c3ccccc3)n(Cc3ccncc3)c3ccccc23)Oc2cc(O)cc(O)c21` registered an IC50 of 11 µM.
The same measure, in the same setting: with `O=C1/C(=C/c2c[nH]c3ccc(Cl)cc23)Oc2c1ccc(O)c2O` the figure was 5 µM.
`COC(=O)Nc1ccc2c(c1)C(=O)/C(=C/c1cn(CCN3CCN(C)CC3)c3ccc(OC)cc13)O2`: the figures for the IC50 at PIK3CA (human) and against PIK3CG (human) were 0.63 µM and 7.36 µM, respectively.
`COc1cc(-c2ccncc2)c2c(c1)c(/C=C1\Oc3cc(O)ccc3C1=O)cn2CCCC#N` returned an IC50 against PIK3CG (human) of 5 µM. In other words, the single-digit micromolar range.
Compound `Cn1cc(/C=C2/Oc3cc(O)cc(O)c3C2=O)c2c(-c3ccccc3)cccc21.Cn1cc(/C=C2\Oc3cc(O)cc(O)c3C2=O)c2c(-c3ccccc3)cccc21` registered an IC50 on PIK3CA (human) of 0.266 µM.
Consider `O=C1C(=Cc2c(Br)[nH]c3ccccc23)Oc2c1ccc(O)c2O`, for which the IC50 against PIK3CG (human) amounted to 5 µM. In other words, the single-digit micromolar range.
`Cc1ccc2c(c1)C(=O)/C(=C/c1c(-c3ccc4ccccc4c3)[nH]c3ccccc13)S2` returned an IC50 at PIK3CA (human) of 12 µM.
On to `O=C1C(=Cc2c(-c3ccccc3)n(Cc3cccnc3)c3ccccc23)Oc2cc(O)cc(O)c21`, for which the IC50 on PIK3CG (human) came to 11 µM.
The compound `COc1ccc2[nH]cc(/C=C3\Oc4cc(O)cc(Br)c4C3=O)c2c1` returned an IC50 against PIK3CA (human) of 0.12 µM.
As to `Cc1cccc2c1c(/C=C1\Oc3cc(O)cc(O)c3C1=O)c(-c1ccccn1)n2C`, the IC50 against PIK3CG (human) amounted to 11 µM.
Same read-out and setting: in the case of `COc1ccc2[nH]cc(/C=C3\Oc4cc(S(=O)(=O)OC(F)(F)F)ccc4C3=O)c2c1` it was 9.35 µM.
Take `O=C1C(=Cc2c(-c3ccccc3)n(CCN3CCCCC3)c3ccccc23)Oc2cc(O)cc(O)c21`: the IC50 against PIK3CA (human) amounted to 2.28 µM; against PIK3CG (human), 4.88 µM.
In the case of `Cc1ccc2c(c1)C(=O)/C(=C/c1c(C)[nH]c3ccc([N+](=O)[O-])cc13)S2`, the IC50 against PIK3CA (human) was found to be 9.19 µM.
Turning to `COc1ccc2c(c1)c(/C=C1\Oc3ccc(Br)cc3C1=O)cn2CCCN(C)C`, the IC50 against PIK3CG (human) was determined as 5 µM.
Still for that read-out and setting: with `COc1ccc(-c2cccc3c2c(/C=C2\Oc4cc(O)cc(O)c4C2=O)cn3C)cn1` the figure was 5 µM; with `CN(c1ccccc1)c1cccc2c1c(/C=C1\Oc3cc(O)cc(O)c3C1=O)cn2C`, 5 µM.
For `COc1ccc2c(c1)c(C=C1Oc3c(ccc(O)c3O)C1=O)c(C)n2CCCCN1CCN(C)CC1`, the values for the IC50 on PIK3CA (human) and at PIK3CG (human) were 0.337 µM and 4.15 µM, respectively.
Taken in the same sequence, the figures for `CN(C)Cc1ccc(-c2ccc(-c3c(/C=C4\Oc5cc(O)cc(O)c5C4=O)c4ccccc4n3C)cc2)cc1` were 1.23 µM and 2.31 µM.
In turn, `COc1ccc2[nH]cc(/C=C3\Oc4c(OC)cccc4C3=O)c2c1` gave an IC50 against PIK3CA (human) of 9.86 µM.
Regarding `Cn1c(-c2ccc(-c3ccc(CN)cc3)cc2)c(/C=C2\Oc3cc(O)cc(O)c3C2=O)c2ccccc21`, the IC50 against PIK3CA (human) is 2.86 µM; at PIK3CG (human), 9.5 µM.
On PIK3CA (human), `CCc1cc(O)cc2c1C(=O)/C(=C/c1c[nH]c3ccc(OC)cc13)O2` displayed an IC50 of 0.133 µM. This lies in the sub-micromolar range.
Take `CCc1cc(OC)cc2c(/C=C3\Oc4cc(O)cc(O)c4C3=O)cn(CCCC#N)c12`: the IC50 on PIK3CA (human) was determined as 0.0625 µM. This IC50 is about 2.1-fold lower than that of the compound before.
For the compound `COc1ccc2c(c1)c(C=C1Oc3cccc(O)c3C1=O)c(C)n2CCN1CCOCC1`, the IC50 was 0.65 µM against PIK3CA (human) and 4.13 µM against PIK3CG (human).
Take `COc1ccc2c(c1)c(C=C1Oc3c(ccc(O)c3O)C1=O)c(C)n2CCCCN1CCOCC1`: the IC50 against PIK3CA (human) turned out to be 0.231 µM; against PIK3CG (human), 0.954 µM.
`COc1ccc2[nH]cc(/C=C3\Oc4cc(O)cc(-c5ccccc5)c4C3=O)c2c1`: the IC50 at PIK3CA (human) came to 0.122 µM.
The compound `O=C1C(=Cc2c[nH]c3cc(Cl)ccc23)Oc2cc(O)cc(O)c21` returned an IC50 on PIK3CG (human) of 10 µM. In other words, the double-digit micromolar range.
Consider `COc1ccc2[nH]c(CCn3ccnc3)c(/C=C3\Oc4cc(O)cc(O)c4C3=O)c2c1`, for which the IC50 turned out to be 0.0095 µM against PIK3CA (human) and 0.0815 µM on PIK3CG (human).
Consider `Cn1cc(C=C2Oc3cc(O)cc(O)c3C2=O)c2c(Cl)cccc21`, for which, at PIK3CG (human), the IC50 came out at 10 µM.
In the case of `COc1cc(/C=C/CC2CCNCC2)c2[nH]cc(/C=C3\Oc4cc(O)ccc4C3=O)c2c1`, the IC50 against PIK3CA (human) was 0.048 µM; against PIK3CG (human) it was 1.89 µM.
As for `COc1ccc2c(c1)c(C=C1Oc3cccc(O)c3C1=O)c(C)n2CCN1CCN(C)CC1`, the IC50 against PIK3CA (human) was 0.488 µM; against PIK3CG (human), 4.5 µM.
On PIK3CA (human), `CNC(=O)Nc1ccc2c(c1)O/C(=C\c1cn(CCCN(C)C)c3ccc(OC)cc13)C2=O` had an IC50 of 10 µM.
